Test results published in article PMC6952396, “Structural basis for itraconazole-mediated NPC1 inhibition” (Nature Communications, 2020).
“Also recorded” adds a separate entry of the source.

System: T1, human NPC1
T1 construct: Strep-tag; made in house; host or cells: HEK-293S GnTI- cells (baculovirus-mediated transduction)
Test: P-X cross-linking to purified NPC1
Format: binding
Conditions: for competition with cross-linking of P-X to purified NPC1: 0.3 μM P-X, amphipol-reconstituted NPC1 without detergent, in-gel fluorescence
Procedure: To determine the binding site for itraconazole on NPC1, we expressed and purified the NPC1 protein using n-dodecyl β-D-maltoside (DDM) as the detergent. The protein was then incorporated into amphipol A8-35 and the detergent was removed with bio-beads and further separated by gel filtration in phosphate buffered saline (PBS).
For Cross-Linking of P-X to purified NPC1 protein, each reaction contained 0.5 μg of indicated protein, 0.3 μM P-X, and various amounts of itraconazole in a final volume of 100 μL of buffer containing 50 mM Hepes pH7.5 and 150 mM NaCl with or without 0.1% Digitonin (Calbiochem). After incubation for 1 h at 37 °C, the mixture was subjected to UV cross-linking for 10 min and then tagged with Alexa Fluor 532 by means of copper-catalyzed azide-alkyne cycloaddition (click chemistry)[22],[41]. The reactions were carried out by mixing an aliquot of each mixture (50 μL), in a final volume of 58.5 μL, with 3 μL of 1.7 mM Tris[(1-benzyl-1H-1,2,3-triazol-4-yl) methyl] amine (TBTA), 2 μL of 50 mM CuSO4, 1 μL of 50 mM Tris(2-carboxyethyl) phosphine (TCEP), 1.5 μL 10% SDS and 1 μL of 1.25 mM Alexa Fluor 532 azide. The mixture was incubated at room temperature for 1 h.
To visualize the fluorescent-labeled proteins by in-gel fluorescence, 20 μL. aliquots of each sample were mixed with 4x loading dye and subjected to 8% SDS/PAGE, after which the gels were scanned with a Typhoon image scanner (GE Healthcare; filter setting: excitation, […]; emission, 555 nm; high sensitivity). After scanning the gel, the proteins were transferred to nitrocellulose and blotted with rabbit monoclonal anti-NPC1 as indicated in the figure legends.
Human NPC1 protein was expressed and purified as previously described, except for using Strep-tag instead of His-tag. Briefly, the protein was expressed using baculovirus-mediated transduction of mammalian HEK-293S GnTI^− cells (ATCC, CRL-3022). At 48 h post infection, the cells were disrupted by sonication in buffer B, containing 20 mM Hepes, pH7.5, 150 mM NaCl with 1 mM PMSF and 5 μg/mL leupeptin. After low speed centrifugation, the resulting supernatant was incubated in buffer B with 1% (w/v) DDM for 1 h at 4 °C. The lysate was centrifuged again, and the supernatant was loaded onto a Strep-Tactin affinity column (IBA). After washing twice, the protein was eluted in 20 mM Hepes, pH7.5, 150 mM NaCl, 2.5 mM desthiobiotin, 0.02% DDM and concentrated. The concentrated protein was further purified by Superdex 200 increase column (GE Healthcare) in buffer B with 0.02% DDM. The peak fractions were mixed with amphipol A8-35 (Anatrace) at 1:3 (w/w) for 4 h. Detergent was removed with Bio-Beads (Bio-Rad) overnight and further separation on a Superdex 200 increase column in PBS (Sigma-Aldrich). […]

Compound	competition with cross-linking of P-X to purified NPC1	cross-linking of P-X to purified NPC1 (amphipol-reconstituted NPC1 in PBS without detergent)	cross-linking of P-X to purified NPC1 (protein solubilized in digitonin)
CCC(C)n1ncn(-c2ccc(N3CCN(c4ccc(OCC5COC(Cn6cncn6)(c6ccc(Cl)cc6Cl)O5)cc4)CC3)cc2)c1=O (stereo not shown) [Itraconazole mixture, itraconazole]	competed	–	–
CCC(C)n1ncn(-c2ccc(N3CCN(c4ccc(OCC5COC(Cn6cncn6)(c6ccc(Cl)cc6Cl)O5)cc4)CC3)c(Br)c2)c1=O (stereo not shown) [I-Br]	binds to NPC1 in a similar manner to the itraconazole mixture; also recorded: competes	–	–
C#CCOc1ccc(C(=O)c2ccc(C(=O)OC(C)C(CC)n3ncn(-c4ccc(N5CCN(c6ccc(OCC7COC(Cn8cncn8)(c8ccc(F)cc8F)O7)cc6)CC5)cc4)c3=O)cc2)cc1 (stereo not shown) [P-X]	–	can cross-link	not when the protein was solubilized in digitonin
